Results taken from ChEMBL document CHEMBL5625174, “Are inhibitors of histone deacetylase 8 (HDAC8) effective in hematological cancers especially acute myeloid leukemia (AML) and acute lymphoblastic leukemia (ALL)?” (Eur J Med Chem, 2023).
Square brackets hold non-standard residues; d marks the D form. Peptide text beside a SMILES is read from it. * marks the point of attachment. Asu = N[C@@H](CCCCCC(=O)O)C(=O)O; β3hL = CC(C)C[C@H](N)CC(=O)O; NHOH = ON*

Legend:
Jurkat E6.1 [1] = experiment: Cytotoxicity against human Jurkat E6.1 cells assessed as reduction in cell viability incubated for 72 hrs by MTT assay; assay type: functional, cell-based; conditions: Jurkat E6.1, 72 h
Histone deacetylase = experiment: Inhibition of HDAC (unknown origin) using Fluoro-Substrate Peptide as substrate by fluorescence assay; assay type: protein assay, Homo sapiens
Histone deacetylase 8 [2] = target: T1, Histone deacetylase 8 (Homo sapiens, UniProt Q9BY41); experiment: Inhibition of HDAC8 (unknown origin) by fluorescence based assay
T1 sequence (Q9BY41 whole entry): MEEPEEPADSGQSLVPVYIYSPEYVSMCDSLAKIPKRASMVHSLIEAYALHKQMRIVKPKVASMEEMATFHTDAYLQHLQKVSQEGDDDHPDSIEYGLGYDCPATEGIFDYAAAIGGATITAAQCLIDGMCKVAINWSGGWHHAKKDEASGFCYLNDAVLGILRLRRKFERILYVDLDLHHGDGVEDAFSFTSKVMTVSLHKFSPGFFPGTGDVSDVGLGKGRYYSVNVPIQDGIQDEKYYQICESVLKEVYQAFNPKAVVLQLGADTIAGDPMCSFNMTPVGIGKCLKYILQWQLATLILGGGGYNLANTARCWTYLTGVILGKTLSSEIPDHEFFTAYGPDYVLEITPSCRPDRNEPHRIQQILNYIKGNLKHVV

U-937 = experiment: Cytotoxicity against human U-937 cells assessed as reduction in cell viability; assay type: functional, cell-based
Jurkat E6.1 [3] = experiment: Cytotoxicity against human Jurkat E6.1 cells assessed as reduction in cell viability; assay type: functional, cell-based
MOLT-4 = experiment: Cytotoxicity against human MOLT-4 cells assessed as reduction in cell viability; assay type: functional, cell-based
[4] = target: T2, Histone deacetylase 8 (Homo sapiens) (UniProt Q9BY41); experiment: Inhibition of His-tagged recombinant HDAC8 (unknown origin) at 10 uM using Boc-Lys(triflouroacetyl)-AMC as fluorogenic substrate pre-incubated for 30 mins followed by substrate addition and measured after 30 mins by fluorescence based analysis relative to control; conditions: time 60.0 min
T2 sequence (whole entry): T1 sequence (Q9BY41 whole entry)

Histone deacetylase 8 [5] = target: T1, Histone deacetylase 8; experiment: Inhibition of human recombinant HDAC8 using AMC-K(Ac)GL as substrate by fluorescence based assay
Histone deacetylase 8 [6] = target: T1, Histone deacetylase 8; experiment: Inhibition of human recombinant HDAC8 using fluorogenic HDAC substrate class 2A preincubated for 30 mins followed by substrate addition and measured after 15 mins by fluorogenic assay
[7] = Inhibition of HDAC6 (unknown origin) assessed as release of fluorogenic AMC pre-incubated for 15 mins followed by addition of trypsin and substrate measured after 60 mins microplate reader analysis; parameters: species or system Homo sapiens
Histone deacetylase 1 = Histone deacetylase 1 (Homo sapiens, UniProt Q13547); experiment: Inhibition of HDAC1 (unknown origin) using Ac-Leu-Gly-Lys(Ac)-AMC as substrate pre-incubated for 30 mins followed by substrate addition and measured after 30 mins by fluorescence based analysis
Histone deacetylase 1, sequence (Q13547 whole entry): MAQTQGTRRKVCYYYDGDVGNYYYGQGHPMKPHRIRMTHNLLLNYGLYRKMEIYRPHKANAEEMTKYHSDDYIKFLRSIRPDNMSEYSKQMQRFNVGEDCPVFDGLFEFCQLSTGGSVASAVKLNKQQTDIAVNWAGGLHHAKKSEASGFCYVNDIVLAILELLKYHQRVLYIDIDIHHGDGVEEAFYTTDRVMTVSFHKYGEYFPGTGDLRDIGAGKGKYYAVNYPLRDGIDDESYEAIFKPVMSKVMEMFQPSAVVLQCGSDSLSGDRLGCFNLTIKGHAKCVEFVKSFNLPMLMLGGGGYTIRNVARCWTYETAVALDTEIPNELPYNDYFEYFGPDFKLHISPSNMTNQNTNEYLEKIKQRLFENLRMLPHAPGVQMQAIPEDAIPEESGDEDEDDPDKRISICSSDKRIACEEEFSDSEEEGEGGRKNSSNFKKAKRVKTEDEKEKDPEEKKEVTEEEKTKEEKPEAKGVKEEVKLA

Jurkat = experiment: cells; assay type: functional; conditions: Homo sapiens
Description: Growth inhibition of human Jurkat cells

Row | SMILES | IC50 (U-937) [µM] | IC50 (Jurkat E6.1 [3]) [µM] | IC50 (MOLT-4) [µM] | also measured
1 | CCCCNC(=O)[C@H](CCC(=O)NO)NC(=O)Cc1ccc(Cl)cc1 |  |  |  | IC50 (Jurkat E6.1 [1]): < 50 µM
2 | CCCCCNC(=O)[C@H](CCC(=O)NO)NC(=O)Cc1ccc(Cl)cc1 |  |  |  | IC50 (Jurkat E6.1 [1]): < 50 µM
3 | CCCCCCNC(=O)[C@H](CCC(=O)O)NC(=O)Cc1ccc(Cl)cc1 | ≤ 35 | ≤ 35 | ≤ 35 | IC50 (Histone deacetylase): > 10 µM; IC50 (Histone deacetylase 8 [2]): ≤ 10 µM
4 | O=C(O)CC[C@H](NC(=O)Cc1ccc(Br)cc1)C(=O)NCc1ccccc1Cl | > 35 | > 35 | < 35 | IC50 (Histone deacetylase): > 10 µM; IC50 (Histone deacetylase 8 [2]): ≤ 10 µM
5 | CCCCNC(=O)[C@H](CCC(=O)NO)NC(=O)Cc1ccc([N+](=O)[O-])cc1 |  |  |  | IC50 (Jurkat E6.1 [1]): < 50 µM
6 | CC(C)C[C@H](NC(=O)[C@@H](O)[C@H](N)Cc1ccccc1)C(=O)NCCOCCOCC(=O)Nc1cccc(C(=O)NO)c1 |  |  |  | inhibition [4]: 71%
7 | CC(C)C[C@H]1CC(=O)N[C@@H](C)C(=O)N[C@@H](CCCCCC(=O)NO)C(=O)N[C@@H](Cc2c[nH]c3ccccc23)C(=O)N1 (cyclo([Asu](NHOH)W[β3hL]A)) |  |  |  | IC50 (Histone deacetylase 8 [5]): 0.12 µM
8 | CSCC[C@@H]1NCC(=O)NC1=O |  |  |  | IC50 (Histone deacetylase 8 [6]): 0.0884 µM
9 | O=C(O)CC[C@H](NC(=O)Cc1ccc(Br)cc1)C(=O)NCc1ccc(Cl)cc1 | > 35 | < 35 | < 35 | IC50 (Histone deacetylase): > 10 µM; IC50 (Histone deacetylase 8 [2]): ≤ 10 µM
10 | CC(C)CNC(=O)[C@H](CCC(=O)NO)NC(=O)Cc1ccccc1F |  |  |  | IC50 (Jurkat E6.1 [1]): > 50 µM
11 | COc1ccc(/C=C/C(=O)NO)c(-c2ccc(-c3ccccc3)cc2)c1 |  |  |  | IC50 [7]: > 20 µM
12 | CCCCNC(=O)[C@H](CCC(=O)NO)NC(=O)Cc1ccc(Cl)cc1Cl |  |  |  | IC50 (Jurkat E6.1 [1]): < 50 µM
13 | O=C(O)CC[C@H](NC(=O)Cc1ccc(Cl)cc1Cl)C(=O)NCc1ccccc1 | ≤ 35 | ≤ 35 | ≤ 35 | IC50 (Histone deacetylase): > 10 µM; IC50 (Histone deacetylase 8 [2]): ≤ 10 µM
14 | CC(C)C[C@H](NC(=O)[C@@H](O)[C@H](N)Cc1ccccc1)C(=O)NCCOCCOCCNC(=O)c1cccc(C(=O)NO)c1 |  |  |  | inhibition [4]: 64%
15 | CCCCCCNC(=O)[C@H](CCC(=O)NO)NC(=O)Cc1ccc(Br)cc1 |  |  |  | IC50 (Jurkat E6.1 [1]): < 50 µM
16 | N[C@H](Cc1ccc(Cl)cc1Cl)C(=O)N1Cc2ccccc2C1 |  |  |  | IC50 [7]: > 30 µM
17 | CSCC[C@H]1NCC(=O)NC1=O |  |  |  | IC50 (Histone deacetylase 8 [6]): 0.0797 µM
18 | O=C(O)CC[C@H](NC(=O)Cc1ccc(Br)cc1)C(=O)NCc1ccccc1 | > 35 | ≤ 35 | ≤ 35 | IC50 (Histone deacetylase): > 10 µM; IC50 (Histone deacetylase 8 [2]): ≤ 10 µM
19 | O=C1CN[C@@H](Cc2ccccc2)C(=O)N1 |  |  |  | IC50 (Histone deacetylase 8 [6]): 0.0674 µM
20 | O=C(NO)c1cccc(-c2nc(CSc3ccccc3)no2)c1 |  |  |  | IC50 (Histone deacetylase 8 [5]): 0.12 µM
21 | O=C(CC[C@H](NC(=O)Cc1ccc(Cl)cc1Cl)C(=O)Nc1ccccc1)NO |  |  |  | IC50 (Jurkat E6.1 [1]): < 50 µM
22 | CC(C)C[C@H](NC(=O)[C@@H](O)[C@H](N)Cc1ccccc1)C(=O)NCCCCCC(=O)Nc1ccc(NC(=O)CCCCCCC(=O)NO)cc1 |  |  |  | inhibition [4]: 90%
23 | CCCCCCNC(=O)[C@H](CCC(=O)O)NC(=O)Cc1ccc(Cl)cc1Cl | ≤ 35 | ≤ 35 | ≤ 35 | IC50 (Histone deacetylase): > 10 µM; IC50 (Histone deacetylase 8 [2]): ≤ 10 µM
24 | CCCCCNC(=O)[C@H](CCC(=O)NO)NC(=O)Cc1ccc(Cl)cc1Cl |  |  |  | IC50 (Jurkat E6.1 [1]): < 50 µM
25 | O=C(O)CC[C@H](NC(=O)Cc1ccc(-c2ccccc2)cc1)C(=O)NCc1ccccc1 | < 35 | < 35 | < 35 | IC50 (Histone deacetylase): > 10 µM; IC50 (Histone deacetylase 8 [2]): ≤ 10 µM
26 | COc1ccc(CNC(=O)[C@H](CCC(=O)O)NC(=O)Cc2ccc(Br)cc2)cc1 | > 35 | < 35 | < 35 | IC50 (Histone deacetylase): > 10 µM; IC50 (Histone deacetylase 8 [2]): ≤ 10 µM

Row | SMILES | IC50 (U-937) [µM] | IC50 (Jurkat E6.1 [3]) [µM] | IC50 (MOLT-4) [µM] | also measured
27 | CCCCCNC(=O)[C@H](CCC(=O)NO)NC(=O)Cc1ccccc1 |  |  |  | IC50 (Jurkat E6.1 [1]): < 50 µM
28 | O=C(O)CC[C@H](NC(=O)Cc1ccc(Br)cc1)C(=O)NCc1ccc(Cl)c(Cl)c1 | > 35 | < 35 | < 35 | IC50 (Histone deacetylase): > 10 µM; IC50 (Histone deacetylase 8 [2]): ≤ 10 µM
29 | CCCCCCNC(=O)[C@H](CCC(=O)NO)NC(=O)Cc1ccccc1 |  |  |  | IC50 (Jurkat E6.1 [1]): < 50 µM
30 | O=C1CN[C@H](Cc2cc3ccccc3[nH]2)C(=O)N1 |  |  |  | IC50 (Histone deacetylase 8 [6]): 0.0511 µM
31 | O=C(NO)c1ccc(-c2cccc3ccccc23)cc1 |  |  |  | IC50 (Histone deacetylase 1): > 100 µM; IC50 [7]: 55 µM
32 | CCCCCCNC(=O)[C@H](CCC(=O)O)NC(=O)Cc1ccc(Br)cc1 | > 35 | ≤ 35 | ≤ 35 | IC50 (Histone deacetylase): > 10 µM; IC50 (Histone deacetylase 8 [2]): ≤ 10 µM
33 | N[C@H](Cc1cccc(Cl)c1)C(=O)N1CCN(C(=O)c2cc(F)ccc2F)CC1 |  |  |  | IC50 [7]: > 30 µM
34 | CC(C)NC(=O)[C@H](CCC(=O)O)NC(=O)Cc1ccccc1F | > 35 | > 35 | > 35 | 
35 | CCCCCCNC(=O)[C@H](CCC(=O)O)NC(=O)Cc1ccc(-c2ccccc2)cc1 |  |  |  | IC50 (Histone deacetylase): > 10 µM; IC50 (Histone deacetylase 8 [2]): > 10 µM
36 | CCCCCNC(=O)[C@H](CCC(=O)NO)NC(=O)Cc1ccc(Br)cc1 |  |  |  | IC50 (Jurkat E6.1 [1]): > 50 µM
37 | CC(C)(C)NC(=O)[C@H](CCC(=O)O)NC(=O)Cc1ccc(Cl)cc1 | > 35 | < 35 | < 35 | 
38 | O=C(NO)c1cccc(-c2csc(CSc3ccccc3)n2)c1 |  |  |  | GI50 (Jurkat): 2 µM
39 | O=C(O)CC[C@H](NC(=O)Cc1ccc(Cl)cc1)C(=O)NCc1ccccc1 |  |  |  | IC50 (Histone deacetylase): > 10 µM; IC50 (Histone deacetylase 8 [2]): ≤ 10 µM
40 | CC(C)CNC(=O)[C@H](CCC(=O)O)NC(=O)Cc1ccc(Br)cc1 | > 35 | > 35 | > 35 | 
41 | O=C1CN[C@H](Cc2ccccc2)C(=O)N1 |  |  |  | IC50 (Histone deacetylase 8 [6]): 0.0215 µM
42 | CCCCCNC(=O)[C@H](CCC(=O)NO)NC(=O)Cc1ccccc1Br |  |  |  | IC50 (Jurkat E6.1 [1]): > 50 µM
43 | O=C(O)CC[C@H](NC(=O)Cc1ccccc1Br)C(=O)Nc1ccccc1 | > 35 | > 35 | < 35 | 
44 | COc1ccc(Cn2ccc3ccc(C(=O)NO)cc32)cc1 |  |  |  | IC50 [7]: 2.9 µM; GI50 (Jurkat): 2.4 µM
45 | COc1ccc(CC(=O)N[C@@H](CCC(=O)O)C(=O)NC(C)(C)C)cc1 | > 35 | > 35 | > 35 | 
46 | CCCNC(=O)[C@H](CCC(=O)O)NC(=O)Cc1ccc(Cl)cc1 | > 35 | ≤ 35 | > 35 | 
47 | CC(C)NC(=O)[C@H](CCC(=O)O)NC(=O)Cc1ccccc1Br | > 35 | > 35 | > 35 | 
48 | O=C1CN[C@@H](Cc2cc3ccccc3[nH]2)C(=O)N1 |  |  |  | IC50 (Histone deacetylase 8 [6]): 0.0108 µM
49 | CCCNC(=O)[C@H](CCC(=O)O)NC(=O)Cc1ccc(Br)cc1 | > 35 | ≤ 35 | ≤ 35 | 
50 | O=C(O)CC[C@H](NC(=O)Cc1ccc(-c2ccccc2)cc1)C(=O)NC1CCCCC1 | > 35 | < 35 | < 35 | 
51 | CCCCCNC(=O)[C@H](CCC(=O)O)NC(=O)Cc1ccccc1Br | > 35 | > 35 | < 35 | 
52 | O=C(O)CC[C@H](NC(=O)Cc1ccc(Cl)cc1)C(=O)NC1CCCCC1 | > 35 | < 35 | < 35 | 
